Results from patent US20090012095A1, “HUMAN N-TYPE CALCIUM CHANNEL BLOCKERS” (Wyeth, priority 2002, published 2009).

What was measured:
[1] = target: T1, N-type calcium channel α1B+SFVG (Homo sapiens, UniProt Q00975, INS1237SFVG); assay: Transient expression and recording from Xenopus oocytes, calcium channel modulation; assay type: cell-based; conditions: transient expression
T1 construct: expressed in transfected cells; host or cells: Xenopus oocytes
Experimental: Representative compounds of the formulae herein are screened for activity against […] in an assay essentially as described in J. Neurosci., Aug. 15, 2001, 21(16):5944-5951, W. Xu and D. Lipscombe, using transient expression and recording from Xenopus oocytes. The assay is performed using various calcium channels (e.g., N-type calcium channel α1B+SFVG) whereby the modulation of the calcium channel is measured for each compound.
The following IC50 data were obtained for compounds 1 and 2, following the above-referenced protocols (see Table 1).

[2] = target: N-type calcium channel α1B+SFVG (Homo sapiens, UniProt Q00975); assay: Calcium channel modulation in HEK298 cells; assay type: cell-based
Sequence of N-type calcium channel α1B+SFVG (Homo sapiens, UniProt Q00975) (Q00975 whole entry): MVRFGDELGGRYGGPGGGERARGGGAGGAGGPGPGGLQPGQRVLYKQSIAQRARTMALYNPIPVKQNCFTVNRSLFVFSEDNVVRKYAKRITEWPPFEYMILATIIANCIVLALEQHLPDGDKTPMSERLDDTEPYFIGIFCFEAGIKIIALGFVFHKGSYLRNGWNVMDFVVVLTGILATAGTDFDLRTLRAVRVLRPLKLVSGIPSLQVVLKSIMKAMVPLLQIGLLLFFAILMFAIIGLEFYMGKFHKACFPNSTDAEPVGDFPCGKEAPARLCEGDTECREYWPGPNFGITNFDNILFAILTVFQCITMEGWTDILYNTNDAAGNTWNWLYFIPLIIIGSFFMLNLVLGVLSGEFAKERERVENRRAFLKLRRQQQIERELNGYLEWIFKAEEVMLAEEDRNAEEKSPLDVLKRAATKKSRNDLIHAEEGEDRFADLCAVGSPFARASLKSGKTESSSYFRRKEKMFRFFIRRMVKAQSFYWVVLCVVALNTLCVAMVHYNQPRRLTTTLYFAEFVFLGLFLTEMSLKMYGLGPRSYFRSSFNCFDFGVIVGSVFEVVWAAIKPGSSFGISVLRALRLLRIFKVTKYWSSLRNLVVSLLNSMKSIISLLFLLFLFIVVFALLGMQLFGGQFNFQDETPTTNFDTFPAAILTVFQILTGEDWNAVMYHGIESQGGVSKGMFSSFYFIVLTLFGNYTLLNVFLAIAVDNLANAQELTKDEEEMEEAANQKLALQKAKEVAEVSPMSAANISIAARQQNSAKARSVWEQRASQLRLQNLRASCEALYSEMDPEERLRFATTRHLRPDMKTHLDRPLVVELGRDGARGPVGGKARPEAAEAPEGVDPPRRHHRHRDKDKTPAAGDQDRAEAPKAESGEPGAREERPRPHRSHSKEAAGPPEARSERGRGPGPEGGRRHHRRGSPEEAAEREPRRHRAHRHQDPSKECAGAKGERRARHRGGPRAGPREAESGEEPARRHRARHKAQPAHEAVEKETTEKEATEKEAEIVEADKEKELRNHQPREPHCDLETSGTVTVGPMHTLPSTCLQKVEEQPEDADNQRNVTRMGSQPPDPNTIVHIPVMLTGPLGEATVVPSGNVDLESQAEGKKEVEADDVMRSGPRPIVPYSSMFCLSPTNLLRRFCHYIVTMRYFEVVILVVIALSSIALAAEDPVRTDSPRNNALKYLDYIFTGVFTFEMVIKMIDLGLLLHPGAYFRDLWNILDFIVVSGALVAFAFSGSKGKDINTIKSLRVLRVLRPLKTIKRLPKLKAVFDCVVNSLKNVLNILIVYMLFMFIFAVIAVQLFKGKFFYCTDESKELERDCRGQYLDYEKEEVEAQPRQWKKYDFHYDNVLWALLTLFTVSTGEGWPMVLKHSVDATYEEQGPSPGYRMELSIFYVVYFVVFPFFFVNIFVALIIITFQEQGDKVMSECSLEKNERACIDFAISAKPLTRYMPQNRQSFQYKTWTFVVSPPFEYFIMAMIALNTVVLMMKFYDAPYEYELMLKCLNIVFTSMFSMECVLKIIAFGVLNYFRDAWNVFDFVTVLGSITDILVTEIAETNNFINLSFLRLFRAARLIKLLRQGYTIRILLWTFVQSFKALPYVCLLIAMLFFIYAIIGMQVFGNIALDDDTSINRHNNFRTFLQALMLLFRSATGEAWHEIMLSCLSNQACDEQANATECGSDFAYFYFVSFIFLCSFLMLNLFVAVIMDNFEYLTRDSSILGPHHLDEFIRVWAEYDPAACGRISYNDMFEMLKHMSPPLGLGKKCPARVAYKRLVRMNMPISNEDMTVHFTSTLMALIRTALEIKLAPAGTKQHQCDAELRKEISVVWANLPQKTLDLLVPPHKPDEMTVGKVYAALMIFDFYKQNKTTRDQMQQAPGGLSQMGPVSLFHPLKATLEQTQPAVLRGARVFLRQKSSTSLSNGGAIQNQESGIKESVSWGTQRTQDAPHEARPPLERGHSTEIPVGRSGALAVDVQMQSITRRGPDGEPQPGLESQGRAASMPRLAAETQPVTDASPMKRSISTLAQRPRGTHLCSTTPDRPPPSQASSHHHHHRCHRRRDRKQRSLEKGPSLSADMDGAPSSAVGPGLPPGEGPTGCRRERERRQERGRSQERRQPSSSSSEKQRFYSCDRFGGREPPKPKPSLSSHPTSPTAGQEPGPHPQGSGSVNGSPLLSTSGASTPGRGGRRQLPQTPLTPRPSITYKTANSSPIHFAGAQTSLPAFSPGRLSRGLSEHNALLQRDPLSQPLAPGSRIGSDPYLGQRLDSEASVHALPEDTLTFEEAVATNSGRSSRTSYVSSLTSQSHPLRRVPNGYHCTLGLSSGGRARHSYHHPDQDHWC

T1 sequence (Q00975 with tags, fused parts or gaps INS1237SFVG): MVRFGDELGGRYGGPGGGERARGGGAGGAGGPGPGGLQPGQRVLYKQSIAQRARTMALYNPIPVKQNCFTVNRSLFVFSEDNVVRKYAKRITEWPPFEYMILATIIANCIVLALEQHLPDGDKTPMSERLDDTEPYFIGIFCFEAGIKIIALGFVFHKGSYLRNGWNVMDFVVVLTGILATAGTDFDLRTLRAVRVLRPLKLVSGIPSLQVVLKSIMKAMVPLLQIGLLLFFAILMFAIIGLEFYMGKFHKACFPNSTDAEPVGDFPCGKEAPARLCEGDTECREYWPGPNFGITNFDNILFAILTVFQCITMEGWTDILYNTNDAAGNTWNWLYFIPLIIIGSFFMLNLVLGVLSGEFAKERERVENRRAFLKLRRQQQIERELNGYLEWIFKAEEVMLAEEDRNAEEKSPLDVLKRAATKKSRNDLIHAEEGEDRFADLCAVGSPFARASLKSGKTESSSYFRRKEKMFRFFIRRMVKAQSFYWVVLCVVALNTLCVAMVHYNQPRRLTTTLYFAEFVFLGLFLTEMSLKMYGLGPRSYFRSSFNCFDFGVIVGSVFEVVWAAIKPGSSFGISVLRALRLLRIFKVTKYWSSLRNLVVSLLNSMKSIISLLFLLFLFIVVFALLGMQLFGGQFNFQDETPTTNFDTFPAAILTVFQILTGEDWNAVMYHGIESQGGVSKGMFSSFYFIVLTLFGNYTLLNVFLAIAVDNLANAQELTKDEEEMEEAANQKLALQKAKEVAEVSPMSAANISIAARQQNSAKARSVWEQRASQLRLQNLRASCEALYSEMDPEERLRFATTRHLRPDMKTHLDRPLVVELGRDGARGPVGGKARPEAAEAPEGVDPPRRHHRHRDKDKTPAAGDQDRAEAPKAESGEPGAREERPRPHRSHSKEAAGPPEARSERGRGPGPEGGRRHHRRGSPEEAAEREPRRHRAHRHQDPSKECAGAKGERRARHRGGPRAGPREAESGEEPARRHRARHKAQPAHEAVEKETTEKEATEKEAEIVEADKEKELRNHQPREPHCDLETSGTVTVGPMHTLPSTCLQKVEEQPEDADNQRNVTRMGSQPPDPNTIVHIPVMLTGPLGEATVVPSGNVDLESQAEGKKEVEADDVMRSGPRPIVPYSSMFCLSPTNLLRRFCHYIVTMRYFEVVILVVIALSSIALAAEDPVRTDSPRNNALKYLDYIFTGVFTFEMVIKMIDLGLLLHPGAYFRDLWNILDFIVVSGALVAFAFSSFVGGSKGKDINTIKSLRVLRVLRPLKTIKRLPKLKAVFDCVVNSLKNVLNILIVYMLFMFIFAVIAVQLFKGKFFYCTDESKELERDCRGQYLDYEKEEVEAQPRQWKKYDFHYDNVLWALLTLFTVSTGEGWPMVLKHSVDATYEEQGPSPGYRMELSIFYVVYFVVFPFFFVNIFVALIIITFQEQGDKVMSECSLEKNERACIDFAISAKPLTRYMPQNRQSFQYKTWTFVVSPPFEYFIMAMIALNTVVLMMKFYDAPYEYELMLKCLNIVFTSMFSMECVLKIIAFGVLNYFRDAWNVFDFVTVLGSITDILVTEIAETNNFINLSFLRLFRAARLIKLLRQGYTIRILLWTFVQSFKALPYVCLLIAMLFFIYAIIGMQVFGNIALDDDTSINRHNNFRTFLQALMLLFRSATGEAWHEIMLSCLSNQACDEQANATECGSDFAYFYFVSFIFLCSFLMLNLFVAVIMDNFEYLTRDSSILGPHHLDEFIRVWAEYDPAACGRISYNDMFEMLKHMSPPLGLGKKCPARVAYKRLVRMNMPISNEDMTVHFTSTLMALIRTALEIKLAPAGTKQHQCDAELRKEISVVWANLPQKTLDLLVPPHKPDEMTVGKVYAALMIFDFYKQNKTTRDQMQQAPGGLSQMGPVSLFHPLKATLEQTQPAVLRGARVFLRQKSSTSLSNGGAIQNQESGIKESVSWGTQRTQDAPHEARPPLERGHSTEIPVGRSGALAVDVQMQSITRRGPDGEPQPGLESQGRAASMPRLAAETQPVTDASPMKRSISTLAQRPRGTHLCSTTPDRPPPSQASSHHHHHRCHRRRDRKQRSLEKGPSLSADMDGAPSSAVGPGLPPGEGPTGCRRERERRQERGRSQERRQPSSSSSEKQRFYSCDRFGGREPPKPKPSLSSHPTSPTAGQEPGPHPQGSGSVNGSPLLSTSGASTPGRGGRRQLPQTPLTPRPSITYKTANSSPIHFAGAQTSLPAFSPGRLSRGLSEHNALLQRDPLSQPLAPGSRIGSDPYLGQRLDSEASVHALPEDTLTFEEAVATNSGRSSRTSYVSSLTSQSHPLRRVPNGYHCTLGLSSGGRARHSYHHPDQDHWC

IC50 [1] [µM] | IC50 [2] [µM] | Compound
7.13 | 0.19 | COc1cc(CN2CCN(CCCCCC(c3ccc(F)cc3)c3ccc(F)cc3)CC2)cc(OC)c1OC [Compound 1]
4.16 | – | O=C(CCCCC(c1ccccc1)c1ccccc1)N1CCC(NCc2ccccc2)CC1 [Compound 2]
